Source: patent US9695155B2, “Herbicidal substituted pyrimidinyloxy benzene compounds” (E. I. DU PONT DE NEMOURS AND COMPANY, priority 2013, dated 2017)

Columns and labels:
[1] = test system: corn; assay: Test A preemergence; type: in vivo, Zea mays
In short: (§1)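 Pre- and postemergence greenhouse screen. Soil: loam + sand. Spray carrier: solvent mixture, non-phytotoxic, with surfactant. Post timing at 1–2 leaves, height 2–10 cm. Readout: visual injury on a 0–100 scale roughly 10 days after application, untreated plants as reference.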

[2] = test system: large (Lg) crabgrass; assay: Test A preemergence; type: in vivo, Digitaria sanguinalis
In short: as §1

[3] = test system: morningglory; assay: Test C postemergence; type: in vivo, Ipomoea coccinea; details: for Plant response rating (0 to 100), Morningglory: postemergence; for Plant response rating, Morningglory: Postemergence, scale 0 to 100 (0 no effect, 100 complete control)
In short: (§2)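 Seeds were sown in loam–sand blend and sprayed preemergence, while plants at 1- to 4-leaf stage (2–18 cm) in peat-based medium received postemergence sprays; test chemicals were formulated in a non-phytotoxic solvent with surfactant. After 13–15 days in a greenhouse, injury was rated visually against controls, 0 (no effect) to 100 (complete control).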

[4] = test system: large (Lg) crabgrass; assay: Test A postemergence; type: in vivo, Digitaria sanguinalis
In short: as §1

[5] = test system: lambsquarters; assay: Test C postemergence; type: in vivo, Chenopodium album; details: for Plant response rating (0 to 100), Lambsquarters: postemergence; for Plant response rating, Lambsquarters: Postemergence, scale 0 to 100 (0 no effect, 100 complete control)
In short: as §2

[6] = test system: rice; assay: Test B flooded paddy test; type: in vivo, Oryza sativa; details: Flood, 250 g ai/ha; 0 to 100 scale where 0 is no effect and 100 is complete control
In short: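 Plants at 2-leaf stage; pots flooded to 3 cm above soil and compound applied directly into paddy water, depth held throughout. After 13 to 15 days in greenhouse, visual rating versus controls on 0 (no effect) to 100 (complete control) scale.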

[7] = test system: barnyardgrass; assay: Test A preemergence; type: in vivo, Echinochloa crus-galli
In short: as §1

[8] = test system: oilseed rape; assay: Test C postemergence; type: in vivo, Brassica napus; details: for Plant response rating (0 to 100), Oilseed Rape: postemergence; for Plant response rating, Oilseed Rape: Postemergence, scale 0 to 100 (0 no effect, 100 complete control)
Source text: Seeds of plant species selected from blackgrass (Alopecurus myosuroides), Italian ryegrass (Lolium multiflorum), wheat, winter (winter wheat, Triticum aestivum), galium (catchweed bedstraw, Galium aparine), corn (Zea mays), large (Lg) crabgrass (Digitaria sanguinalis), giant foxtail (Setaria faberii), johnsongrass (Sorghum halepense), lambsquarters (Chenopodium album), morningglory (Ipomoea coccinea), yellow nutsedge (Cyperus esculentus), pigweed (Amaranthus retroflexus), ragweed (common ragweed, Ambrosia elatior), soybean (Glycine max), barnyardgrass (Echinochloa crus-galli), oilseed rape (Brassica napus), waterhemp (common waterhemp, Amaranthus rudis), kochia (Kochia scoparia), wild oat (Avena fatua), surinam grass (Brachiaria decumbens), foxtail, green (green foxtail, Setaria viridis), goosegrass (Eleusine indica), bromegrass, downy (downy bromegrass, Bromus tectorum), nightshade (eastern black nightshade, Solanum ptycanthum), cocklebur (common cocklebur, Xanthium strumarium), cupgrass, woolly (woolly cupgrass, Eriochloa villosa), bermudagrass (Cynodon dactylon), sunflower, (common oilseed sunflower, Helianthus annuus), Russian thistle (Salsola kali), and velvetleaf (Abutilon theophrasti) were planted into a blend of loam soil and sand and treated preemergence with test chemicals formulated in a non-phytotoxic solvent mixture which included a surfactant.
At the same time, plants selected from these crop and weed species and also barley, winter (winter barley, Hordeum vulgare), windgrass (Apera spica-venti), chickweed (common chickweed, Stellaria media), deadnettle (henbit deadnettle, Lamium amplexicaule), and canarygrass (littleseed canarygrass, Phalaris minor) were planted in pots containing Redi-Earth® planting medium (Scotts Company, 14111 Scottslawn Road, Marysville, Ohio 43041) comprising spaghnum peat moss, vermiculite, wetting agent and starter nutrients and treated with postemergence applications of test chemicals formulated in the same manner. Plants ranged in height from 2 to 18 cm (1- to 4-leaf stage) for postemergence treatments. Treated plants and controls were maintained in a greenhouse for 13 to 15 days, after which time all species were compared to controls and visually evaluated. Plant response ratings, summarized in Table C, are based on a scale of 0 to 100 where 0 is no effect and 100 is complete control. A dash (-) response means no test result.

[9] = test system: ragweed; assay: Test C postemergence; type: in vivo, Ambrosia elatior; details: for Plant response rating (0 to 100), Ragweed: postemergence; for Plant response rating, Ragweed: Postemergence, scale 0 to 100 (0 no effect, 100 complete control)
In short: as §2

[10] = test system: Italian ryegrass; assay: Test C postemergence; type: in vivo, Lolium multiflorum; details: for Plant response rating (0 to 100), Ryegrass, Italian: postemergence; for Plant response rating, Ryegrass, Italian: Postemergence, scale 0 to 100 (0 no effect, 100 complete control)
In short: as §2

[11] = test system: wild oat; assay: Test C postemergence; type: in vivo, Avena fatua; details: for Plant response rating (0 to 100), Oat, Wild: postemergence; for Plant response rating, Oat, Wild: Postemergence, scale 0 to 100 (0 no effect, 100 complete control)
In short: as §2

[12] = test system: pigweed; assay: Test A preemergence; type: in vivo, Amaranthus retroflexus; details: for Pigweed plant response rating: 0 to 100 scale, 0 no effect, 100 complete control, approx. 10 days
In short: as §1

[13] = test system: large (Lg) crabgrass; assay: Test C postemergence; type: in vivo, Digitaria sanguinalis; details: for Plant response rating (0 to 100), Crabgrass, Large: postemergence; for Plant response rating, Crabgrass, Large: Postemergence, scale 0 to 100 (0 no effect, 100 complete control)
In short: as §2

[14] = 125 g ai/ha, 0 to 100 scale where 0 is no effect and 100 is complete control
[15] = 500 g ai/ha, 0 to 100 scale, 0 no effect, 100 complete control, approx. 10 days
[16] = 1000 g ai/ha, 0 to 100 scale, 0 no effect, 100 complete control
[17] = 8 g ai/ha, 0 is no effect, 100 is complete control
[18] = 16 g ai/ha, 0 is no effect, 100 is complete control

N#Cc1cccc(Oc2ncc(Cl)cn2)c1-n1cnc(Br)c1 [Compound 74]
Plant response rating, Corn [1, 14]: 0 | Corn plant response rating [1, 15]: 40 | Plant response rating, Crabgrass, Large [2, 14]: 100 | Crabgrass, Large plant response rating [2, 15]: 100 | Plant response rating (0 to 100), Morningglory ([3]; 125 g ai/ha): 75 | Plant response rating (0 to 100), Morningglory ([3]; 250 g ai/ha): 85 | Plant response rating, Morningglory ([3]; 31 g ai/ha, 13 to 15 days): 60 | Plant response rating, Morningglory ([3]; 62 g ai/ha): 75 | Plant response rating, Crabgrass, Large [4, 14]: 70 | Plant response rating, Crabgrass, Large ([4]; 500 g ai/ha, 0 to 100 scale, 0 no effect, 100 complete control): 90 | Plant response rating (0 to 100), Lambsquarters ([5]; 125 g ai/ha): 75 | Plant response rating (0 to 100), Lambsquarters ([5]; 250 g ai/ha): 85 | Plant response rating, Lambsquarters ([5]; 31 g ai/ha, 13 to 15 days): 40 | Plant response rating, Lambsquarters ([5]; 62 g ai/ha): 75 | Plant response rating, Rice [6]: 0 | Plant response rating, Barnyardgrass [7, 14]: 70 | Barnyardgrass plant response rating [7, 15]: 100 | Plant response rating (0 to 100), Oilseed Rape ([8]; 125 g ai/ha): 40 | Plant response rating (0 to 100), Oilseed Rape ([8]; 250 g ai/ha): 65 | Plant response rating, Oilseed Rape ([8]; 31 g ai/ha, 13 to 15 days): 35 | Plant response rating, Oilseed Rape ([8]; 62 g ai/ha): 40 | Plant response rating (0 to 100), Ragweed ([9]; 125 g ai/ha): 40 | Plant response rating (0 to 100), Ragweed ([9]; 250 g ai/ha): 60 | Plant response rating, Ragweed ([9]; 31 g ai/ha, 13 to 15 days): 40 | Plant response rating, Ragweed ([9]; 62 g ai/ha): 40 | Plant response rating (0 to 100), Ryegrass, Italian ([10]; 125 g ai/ha): 0 | Plant response rating (0 to 100), Ryegrass, Italian ([10]; 250 g ai/ha): 5 | Plant response rating, Ryegrass, Italian ([10]; 31 g ai/ha, 13 to 15 days): 0 | Plant response rating, Ryegrass, Italian ([10]; 62 g ai/ha): 0 | Plant response rating (0 to 100), Oat, Wild ([11]; 125 g ai/ha): 10 | Plant response rating (0 to 100), Oat, Wild ([11]; 250 g ai/ha): 10 | Plant response rating, Oat, Wild ([11]; 31 g ai/ha, 13 to 15 days): 0 | Plant response rating, Oat, Wild ([11]; 62 g ai/ha): 0 | Plant response rating, Pigweed [12, 14]: 100 | Pigweed plant response rating ([12]; 500 g ai/ha): 100 | Plant response rating (0 to 100), Crabgrass, Large ([13]; 125 g ai/ha): 15 | Plant response rating (0 to 100), Crabgrass, Large ([13]; 250 g ai/ha): 20 | Plant response rating, Crabgrass, Large ([13]; 31 g ai/ha, 13 to 15 days): 5 | Plant response rating, Crabgrass, Large ([13]; 62 g ai/ha): 5

CC(=NO)c1cn(-c2c(Br)cccc2Oc2ncc(Cl)cn2)nn1 [Compound 115]
Plant response rating, Corn [1, 16]: 60 | Plant response rating, Crabgrass, Large [2, 16]: 100 | Plant response rating (0 to 100), Morningglory [3, 17]: 0 | Plant response rating (0 to 100), Morningglory [3, 18]: 40 | Plant response rating, Crabgrass, Large [4, 16]: 90 | Plant response rating (0 to 100), Lambsquarters [5, 17]: 10 | Plant response rating (0 to 100), Lambsquarters [5, 18]: 10 | Plant response rating, Rice [6]: 0 | Plant response rating, Barnyardgrass [7, 16]: 100 | Plant response rating (0 to 100), Oilseed Rape [8, 17]: 0 | Plant response rating (0 to 100), Oilseed Rape [8, 18]: 0 | Plant response rating (0 to 100), Ragweed [9, 17]: 5 | Plant response rating (0 to 100), Ragweed [9, 18]: 5 | Plant response rating (0 to 100), Ryegrass, Italian [10, 17]: 0 | Plant response rating (0 to 100), Ryegrass, Italian [10, 18]: 0 | Plant response rating (0 to 100), Oat, Wild [11, 17]: 0 | Plant response rating (0 to 100), Oat, Wild [11, 18]: 0 | Pigweed plant response rating ([12]; 1000 g ai/ha): 100 | Plant response rating (0 to 100), Crabgrass, Large [13, 17]: 5 | Plant response rating (0 to 100), Crabgrass, Large [13, 18]: 5
